The text below walks through data of patent publication US9670142B2, “1,3-diaminocyclopentane carboxamide derivatives” (Merck Patent GmbH, priority 2013, dated 2017).

The experiment concerns the target human fatty acid synthase FASN (Homo sapiens (Human), UniProt P49327). In words: Biochemical activity testing of human fatty acid synthase FASN (NADPH fluorescence intensity enzyme assay). Particulars: human recombinant full-length fatty acid synthase. The procedure, abridged: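 In-house Sf9-expressed full-length enzyme (3 μL of 40 nM) in 50 mM potassium phosphate pH 7.0 with glutathione, BSA and Tween-20, plus NADPH (2 μL of 200 μM), preincubated ≥15 min with compound (10 concentrations from 30 μM final, 1% DMSO). Acetyl-CoA/malonyl-CoA added; NADPH fluorescence (ex 340/em 460 nm) read before and after 30 min at room temperature, difference used for IC50.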

pIC50: −log10 of the molar value.

Sequence of human fatty acid synthase FASN (P49327 whole entry): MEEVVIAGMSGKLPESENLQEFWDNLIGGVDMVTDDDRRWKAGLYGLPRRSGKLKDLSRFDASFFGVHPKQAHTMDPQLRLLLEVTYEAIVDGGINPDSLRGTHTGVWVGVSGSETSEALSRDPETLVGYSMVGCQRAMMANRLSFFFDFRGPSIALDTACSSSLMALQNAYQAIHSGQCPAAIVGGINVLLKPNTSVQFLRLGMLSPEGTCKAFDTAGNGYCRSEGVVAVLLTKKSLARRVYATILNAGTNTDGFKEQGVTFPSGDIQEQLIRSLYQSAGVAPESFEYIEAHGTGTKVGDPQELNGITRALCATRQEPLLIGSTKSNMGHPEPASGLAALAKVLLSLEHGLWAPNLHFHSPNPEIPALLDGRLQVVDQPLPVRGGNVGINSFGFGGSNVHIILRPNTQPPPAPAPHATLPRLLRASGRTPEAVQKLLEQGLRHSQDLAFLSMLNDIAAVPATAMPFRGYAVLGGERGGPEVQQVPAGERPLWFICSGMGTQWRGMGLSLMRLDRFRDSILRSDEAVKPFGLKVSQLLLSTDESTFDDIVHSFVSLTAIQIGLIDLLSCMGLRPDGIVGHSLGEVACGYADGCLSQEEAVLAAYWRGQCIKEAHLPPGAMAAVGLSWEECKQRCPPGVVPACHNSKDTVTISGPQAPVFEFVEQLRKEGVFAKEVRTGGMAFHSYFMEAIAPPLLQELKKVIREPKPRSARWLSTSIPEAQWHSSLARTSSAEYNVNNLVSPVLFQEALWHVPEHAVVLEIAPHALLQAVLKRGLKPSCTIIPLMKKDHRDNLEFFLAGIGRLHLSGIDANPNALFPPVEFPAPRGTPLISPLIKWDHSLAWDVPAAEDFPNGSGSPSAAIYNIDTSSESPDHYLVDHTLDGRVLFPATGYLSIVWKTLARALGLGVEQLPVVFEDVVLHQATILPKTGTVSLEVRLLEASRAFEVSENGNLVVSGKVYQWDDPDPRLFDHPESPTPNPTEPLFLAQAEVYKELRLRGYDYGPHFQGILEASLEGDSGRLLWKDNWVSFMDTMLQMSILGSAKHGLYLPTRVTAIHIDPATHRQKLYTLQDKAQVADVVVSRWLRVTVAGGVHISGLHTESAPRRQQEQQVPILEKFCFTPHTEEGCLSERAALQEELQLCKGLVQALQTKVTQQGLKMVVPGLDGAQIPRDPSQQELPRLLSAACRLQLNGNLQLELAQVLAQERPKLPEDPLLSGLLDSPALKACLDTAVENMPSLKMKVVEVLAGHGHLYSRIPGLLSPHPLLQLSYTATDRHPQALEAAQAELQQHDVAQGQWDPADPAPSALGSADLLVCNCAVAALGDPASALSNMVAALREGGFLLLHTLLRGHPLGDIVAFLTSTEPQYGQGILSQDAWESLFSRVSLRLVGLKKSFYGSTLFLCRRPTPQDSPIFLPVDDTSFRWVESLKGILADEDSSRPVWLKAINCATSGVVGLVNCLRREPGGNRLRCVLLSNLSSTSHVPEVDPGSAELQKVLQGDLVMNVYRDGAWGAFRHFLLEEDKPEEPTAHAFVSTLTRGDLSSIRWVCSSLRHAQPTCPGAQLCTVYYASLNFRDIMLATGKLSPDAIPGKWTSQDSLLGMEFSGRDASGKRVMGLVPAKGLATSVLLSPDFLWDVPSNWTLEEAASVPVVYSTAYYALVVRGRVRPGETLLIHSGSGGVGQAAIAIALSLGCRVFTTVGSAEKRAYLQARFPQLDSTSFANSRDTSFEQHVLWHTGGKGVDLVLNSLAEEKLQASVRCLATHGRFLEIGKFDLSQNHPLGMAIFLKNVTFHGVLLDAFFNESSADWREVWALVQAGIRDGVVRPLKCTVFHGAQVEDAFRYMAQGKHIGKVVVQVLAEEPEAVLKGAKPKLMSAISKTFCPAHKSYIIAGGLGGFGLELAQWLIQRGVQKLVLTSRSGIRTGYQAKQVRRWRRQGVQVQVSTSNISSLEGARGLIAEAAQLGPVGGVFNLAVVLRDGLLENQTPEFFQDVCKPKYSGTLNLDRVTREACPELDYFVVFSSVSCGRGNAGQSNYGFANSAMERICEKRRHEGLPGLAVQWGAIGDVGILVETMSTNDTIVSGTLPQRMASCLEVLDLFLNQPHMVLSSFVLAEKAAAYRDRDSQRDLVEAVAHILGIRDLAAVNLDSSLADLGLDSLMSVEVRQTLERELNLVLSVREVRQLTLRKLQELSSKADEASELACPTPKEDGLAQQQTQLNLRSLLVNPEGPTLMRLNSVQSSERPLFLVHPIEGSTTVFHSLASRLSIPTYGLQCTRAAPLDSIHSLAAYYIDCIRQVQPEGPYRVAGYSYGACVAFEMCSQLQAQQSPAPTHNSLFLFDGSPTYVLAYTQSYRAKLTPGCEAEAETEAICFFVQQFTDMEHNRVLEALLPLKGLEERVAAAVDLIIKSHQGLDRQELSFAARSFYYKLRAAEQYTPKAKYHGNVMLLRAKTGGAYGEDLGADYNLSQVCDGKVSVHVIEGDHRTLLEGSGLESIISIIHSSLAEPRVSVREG

As for `CCC(=O)N[C@H]1CC[C@@H](N(C)C(=O)c2ccc(-c3cc(F)c4[nH]cc(C(N)=O)c4c3)c(F)c2)C1` [Compound A172, 7-fluoro-5-{2-fluoro-4-[methyl-((1R,3S)-3-propionylamino-cyclopentyl)-carbamoyl]-phenyl}-1H-indole-3-carboxylic acid amide], the pIC50 (in general, the negative decadic logarithm of the IC50, by convention in mol/L) was 5.52 to 6.52. The value for `CN(C(=O)c1ccc(-c2nc3cc(Cl)ccc3o2)cc1)[C@@H]1CC[C@H](NC(=O)[C@@H]2CCCO2)C1` [Compound A174] was over 6.52.
